Experimental data from article PMC4893161, “The Dynamic Localization of Cytoplasmic Dynein in Neurons Is Driven by Kinesin-1” (Neuron, 2016).

Assays:
[1] = tested on: anterograde transport of dynein-GFP in axons of primary hippocampal neurons; assay: Slow axonal transport photobleaching assay (dynein-GFP midpoint displacement); assay type: cell-based, mouse; details: for mean velocity of dynein-GFP displacement / mean velocity of dynein-GFP: 3 cultures; for mean velocity of dynein-GFP: 500 ng peptide complexed with Chariot reagent, pre-treated 45–60 min; for mean velocity of dynein-GFP / kymographs with no or retrograde bias: n = 27 (control) and 29 (DIC1a) axons
Method: Primary hippocampal neurons from dynein-GFP mice were cultured for 8–10 DIV in 900 μm microfluidic devices in order to image single axons of known polarity. Post bleach motility was imaged for 60 s at 0.5 fps. A line scan was made for every frame of the time series, then movement of the photo-protected dynein-GFP pool was quantified by defining retrograde and anterograde edges at the half-maximal fluorescence value and tracking the displacement of the midpoint (Figure 6B). The peak of fluorescence intensity decreased with time as the dynein-GFP pool shifted in both anterograde and retrograde directions. However, the relative midpoint could be seen moving with a clear bias in the anterograde direction for several seconds (Figure 6C), particularly when overlaid onto the more standard kymograph representation of axonal transport (Figure 6D). […] By fitting a linear regression to each relative midpoint position over time, we observed anterograde velocities ranging from 0.01 to 0.1 μm/s. However, ∼80% of events were in the 0.01 to 0.05 μm/s range or approximately 1–5 mm a day. All net anterograde velocities were consistent with known speeds of slow axonal transport of cytoplasmic dynein in vivo ([Dillman et al., 1996a], [Dillman et al., 1996b]).
First, we tested whether the anterograde transport of dynein was microtubule dependent, using nocodazole (final concentration 30 μM) to depolymerize microtubules. Every viable isolated axon (see Experimental Procedures) within the microgrooves of the chamber was imaged following the bleaching protocol described above. The relative position of the midpoint for each kymograph was calculated (see Figure 7A for examples) and the mean midpoint displacement ± SEM was plotted for all axons (Figure 7B). […] To establish a mean velocity for dynein-GFP, we fitted each midpoint shift with a linear regression.
To directly test our hypothesis that interactions between dynein and kinesin-1 are required for the anterograde transport of dynein in the axon, we designed a peptide to block the interaction between DIC1 and KLC. We chose a 19-amino-acid-long sequence centered on the tryptophan in WD1 of DIC1a. […] Hippocampal neuronal cultures were pre-treated for 45–60 min with either DIC1a or control peptide, complexed with Chariot reagent for delivery across the plasma membrane. […] Consequently, the anterograde transport of dynein-GFP in the axon is critically dependent on the interaction between dynein subunit DIC1a and the KLCs of kinesin-1.
Live cell imaging of hippocampal cultures was performed in Hibernate E low fluorescence medium in a humidified temperature controlled (37°C) live cell chamber, on an Ultraview Vox (PerkinElmer) dual-imaging system mounted on an inverted Nikon Ti microscope with either 100× or 60× apochromat 1.49 NA oil-immersion objectives (Nikon), fully controlled by Volocity software (PerkinElmer). FRAP and slow axonal transport imaging used the spinning-disk confocal with an Ultraview Photokinesis unit for bleaching and a C9100-50 EM-CCD (Hamamatsu) camera. Near-TIRF imaging used the Nikon TIRF system with an EM-CCD C9100-13 camera (Hamamatsu). Image analysis was performed in FIJI ([Schindelin et al., 2012]) with follow up analysis in R (RStudio). Specifics for each experiment are listed in the Supplemental Experimental Procedures. […]
Slow axonal transport imaging and drug treatments
Axons were imaged with a 100X objective (Nikon). Acquisition speed was 1 frame every two seconds.
For Nocodazole and Taxol drug treatments, […] and 200 nM respective final concentrations were added
to each well of the microfluidic chamber in imaging media (Hibernate E Low Fluorescence media) 45-60
minutes prior to imaging, with hydrostatic pressure across the microgrooves of the microfluidic device to
ensure drugs reached the axons within the grooves.
Peptides were supplied by GenScript, and sequences are VCFYLLLQTWVFPYTHDLH and
LVQPLHFLTWDTCYFHYLV for Control and DIC1a-WD1 peptides respectively. […]

EB3 comets in the axon = assay: EB3-mCherry comet density in axons; assay type: cell-based, mouse; details: taxol 200 nM, 45-60 min pre-treatment, mean; DMSO control 0.12; p = 0.008
Method: Figure S5. Related to Figure 7.
The slow anterograde transport of dynein in the axon is not dependent on dynamic microtubules.
(A) Taxol treatment reduces the density of EB3 comets in the axon. Example kymographs (left) and quantification (right) of
EB3-mCherry comet density in DMSO control and taxol treated axons. Pre-treatment with taxol (200 nM final concentration) for
45-60 minutes prior to imaging reduces the density of EB3 comets in the axon from 0.12 to 0.03 comets/µm/min. Heavy line =
mean, box = sem, grey dots = individual axons. Axons were imaged at 1 frame per second for 3 minutes using live cell spinning
disk confocal microscopy. […]
neurons showing relative positions of anterograde and retrograde intercept (blue) and the calculated midpoint displacement […]
spots are the velocities for each measured kymograph with colour indicating the overall direction of the midpoint displacement. […]
Taxol mean velocity 0.020±0.004 µm/s. p value calculated by a two-sample t-test. […]
Cells were imaged with 60X objective with near-TIRF illumination to eliminate excessive fluorescence […]
every ten minutes, with stage position controlled by Velocity software. For quantification, a threshold was […]
the movie and integrated density of each neurite was measured over time. […]
to each well of the microfluidic chamber in imaging media (Hibernate E Low Fluorescence media) 45-60 […]

KLC1TPR = assay: Fluorescence polarization competition assay with TAMRA-labeled WD1pept; assay type: binding; details: 300 nM TAMRA-DICWD1 and 25 µM KLC TPR (approx. 70% saturation), increasing unlabeled peptide, Figure S3D; typically in triplicate
Method: Measurements were performed as previously described ([Pernigo et al., 2013]) with modifications as listed in Supplemental Experimental Procedures. […]
Log unlabelled peptide [nM]
Figure S3. Related to Figure 3.
(A-C) Isoforms of the mouse cytoplasmic dynein intermediate chain, based on data from (Kuta et al., 2010). The splice forms of DIC1 (A) and DIC2 (B) from the genes Dync1i1 and Dync1i2 respectively, relative to the longest isoform of each with key structural elements indicated: coiled coil required for NudE and p150 binding (McKenney et al., 2011; Nyarko et al., 2012); binding sites of the dynein light chains Tctex (Mok et al., 2001), LC8 (Lo et al., 2001) and Roadblock (Susalka et al., 2002); WD repeats 1-7 of the WD40 domain. Sequence alignments of all DIC isoforms centred on the two alternatively spliced regions: AS Loop 1 and AS Loop 2 (C). […]
(D) In a fluorescence polarization competition assay, TAMRA-labeled WD1pept bound to KLC1TPR is competed off with both unlabeled SKIPWD (with a single tryptophan motif) or a longer peptide encompassing both motifs (SKIPWDWE). […]
Fluorescence polarization measurements […]
[…] All fluorescence polarization (FP) measurements were carried out on a BMG Labtech PolarStar Omega plate reader at 20 °C by incubating 300 nM TAMRA-labeled peptides with His6-tagged KLC2TPR at increasing concentrations in 25 mM Hepes pH 7.5, 150 mM NaCl, 5 mM β-mercaptoethanol. […]

[2] = 500 ng peptide with Chariot reagent, mean ± SEM
[3] = 500 ng peptide with Chariot reagent

COC(=O)Nc1nc2ccc(C(=O)c3cccs3)cc2[nH]1 [Nocodazole, nocodazole]
net motility / anterograde bias ([1]; nocodazole, final concentration 30 μM, Figures 7A and 7B): abrogated the anterograde bias in transport seen in DMSO control neurons, with no net motility in either the anterograde or retrograde direction | mean velocity of dynein-GFP displacement ([1]; nocodazole, final concentration 30 μM, linear regression, mean ± SEM, n = 22 axons, DMSO control 0.018 ± 0.005 μm/s): –0.001 ± 0.005 μm/s

CC(=O)O[C@H]1C(=O)[C@@]2(C)[C@H]([C@H](OC(=O)c3ccccc3)[C@]3(O)C[C@H](OC(=O)[C@H](O)[C@@H](NC(=O)c4ccccc4)c4ccccc4)C(C)=C1C3(C)C)[C@]1(OC(C)=O)CO[C@@H]1C[C@@H]2O [Taxol, taxol]
mean velocity of dynein-GFP displacement ([1]; taxol 200 nM, 45-60 min pre-treatment, mean ± sem, n = 39 axons, DMSO 0.023±0.005 µm/s, p = 0.6 two-sample t-test): 0.020±0.004 µm/s | inhibition of anterograde bias of dynein transport ([1]; taxol 200 nM, Figures S5B–S5D): no inhibition in the anterograde bias of dynein transport | density of EB3 comets in the axon (EB3 comets in the axon): 0.03 comets/µm/min

LVQPLHFLTWDTCYFHYLV [DIC1a peptide]
mean velocity of dynein-GFP ([1]; all kymographs, mean ± SEM): 0.012 ± 0.005 μm/s | anterograde bias of dynein-GFP transport ([1]; 500 ng peptide with Chariot reagent, Figure 7E): substantial reduction in the anterograde bias of dynein-GFP transport | reduction of mean dynein-GFP velocity versus control peptide ([1]; 500 ng peptide with Chariot reagent, all kymographs): over 50% | mean velocity of anterograde only kymographs [1, 2]: 0.029 ± 0.003 μm/s | kymographs with no or retrograde bias [1, 3]: 38% | kymographs showing anterograde velocities over 0.05 μm/s ([1]; 500 ng peptide with Chariot reagent, n = 29 axons): complete loss

STNLEWDDSAI [SKIPWD, unlabeled SKIP peptide with a single tryptophan motif]
competition of WD1pept (KLC1TPR): compete off WD1pept in a concentration dependent manner

STNLEWDDSAIAPSSEDYDFGDVFPAVPSTPR VPSTDWEDGDL [SKIPWDWE, longer SKIP peptide encompassing both motifs]
competition of WD1pept (KLC1TPR): longer and higher affinity SKIPWDWE peptide doing so more efficiently

VCFYLLLQTWVFPYTHDLH [control peptide]
mean velocity of dynein-GFP ([1]; all kymographs, mean ± SEM): 0.029 ± 0.005 μm/s | mean velocity of anterograde only kymographs [1, 2]: 0.036 ± 0.004 μm/s | kymographs with no or retrograde bias [1, 3]: 15% | kymographs with anterograde velocity over 0.05 μm/s ([1]; 500 ng peptide with Chariot reagent, n = 27 axons (control)): 22%
